# Test system: 422866-222-R5-J1-PDC complex spheroid viability
# Assay: Anticancer human tumor 422866-222-R5-J1-PDC patient-derived pancreatic adenocarcinoma cell line growth inhibition [POLQ]
# Settings: for IC50: curve of first compound; for viability, T/C: stronger effect = lower value
# Procedure, shortened: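 Complex spheroid viability model combining PDC tumour cells with endothelial (HUVEC) and MSC stromal cells. Novobiocin, ART-558 or RP6685 were tested singly and in combination with standard and investigational anticancer drugs. Each was titrated in half-log steps from near clinical Cmax, or from 10 microM where Cmax was unknown.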
# [1] = second compound 0.0316 µM, first compound 0.0316 µM
# [2] = second compound 0.0316 µM, first compound 0.1 µM
# [3] = second compound 0.0316 µM, first compound 0.316 µM
# [4] = second compound 0.0316 µM, first compound 1 µM
# [5] = second compound 0.0316 µM, first compound 3.16 µM
# [6] = second compound 0.0316 µM, first compound 10 µM
# [7] = second compound 0.1 µM, first compound 0.0316 µM
# [8] = second compound 0.1 µM, first compound 0.1 µM
# [9] = second compound 0.1 µM, first compound 0.316 µM
# [10] = second compound 0.1 µM, first compound 1 µM
# [11] = second compound 0.1 µM, first compound 3.16 µM
# [12] = second compound 0.1 µM, first compound 10 µM
# [13] = second compound 0.316 µM, first compound 0.0316 µM
# [14] = second compound 0.316 µM, first compound 0.1 µM
# [15] = second compound 0.316 µM, first compound 0.316 µM
# [16] = second compound 0.316 µM, first compound 1 µM
# [17] = second compound 0.316 µM, first compound 3.16 µM
# [18] = second compound 0.316 µM, first compound 10 µM
# [19] = second compound 1 µM, first compound 0.0316 µM
# [20] = second compound 1 µM, first compound 0.1 µM
# [21] = second compound 1 µM, first compound 0.316 µM
# [22] = second compound 1 µM, first compound 1 µM
# [23] = second compound 1 µM, first compound 3.16 µM
# [24] = second compound 1 µM, first compound 10 µM
# [25] = second compound 3.16 µM, first compound 0.0316 µM
# [26] = second compound 3.16 µM, first compound 0.1 µM
# [27] = second compound 3.16 µM, first compound 0.316 µM
# [28] = second compound 3.16 µM, first compound 1 µM
# [29] = second compound 3.16 µM, first compound 3.16 µM
# [30] = second compound 3.16 µM, first compound 10 µM
# [31] = second compound 10 µM, first compound 0.0316 µM
# [32] = second compound 10 µM, first compound 0.1 µM
# [33] = second compound 10 µM, first compound 0.316 µM
# [34] = second compound 10 µM, first compound 1 µM
# [35] = second compound 10 µM, first compound 3.16 µM
# [36] = second compound 10 µM, first compound 10 µM
# 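Note: spheroids exposed to compounds for one week before readout.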
# 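Throughout, for viability, T/C: percent of DMSO vehicle wells luminescence so 100% = untreated viability.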
compound,measurement,setting,value
C=CC(=O)N1CCN(c2nc(=O)n(-c3c(C)ccnc3C(C)C)c3nc(-c4c(O)cccc4F)c(F)cc23)C(C)C1 (stereo unspecified) + Nc1ccc(C#CCN(C(=O)Cc2ncc(C(F)(F)F)cc2C(F)(F)F)c2ccc(F)cc2)nn1,IC50,second compound 0.0316 µM,< 0.0316 µM
same,IC50,second compound 0.1 µM,< 0.0316 µM
same,IC50,second compound 0.316 µM,< 0.0316 µM
same,IC50,second compound 1 µM,< 0.0316 µM
same,IC50,second compound 3.16 µM,< 0.0316 µM
same,IC50,second compound 10 µM,< 0.0316 µM
same,"viability, T/C",[1],32.5%
same,"viability, T/C",[2],28.5%
same,"viability, T/C",[3],28.3%
same,"viability, T/C",[4],28.5%
same,"viability, T/C",[5],27.4%
same,"viability, T/C",[6],23.7%
same,"viability, T/C",[7],32%
same,"viability, T/C",[8],31.2%
same,"viability, T/C",[9],24%
same,"viability, T/C",[10],25.7%
same,"viability, T/C",[11],23.7%
same,"viability, T/C",[12],22.4%
same,"viability, T/C",[13],40.1%
same,"viability, T/C",[14],27.8%
same,"viability, T/C",[15],29%
same,"viability, T/C",[16],24.4%
same,"viability, T/C",[17],25.1%
same,"viability, T/C",[18],24.2%
same,"viability, T/C",[19],34%
same,"viability, T/C",[20],33.1%
same,"viability, T/C",[21],25.9%
same,"viability, T/C",[22],23.2%
same,"viability, T/C",[23],22.2%
same,"viability, T/C",[24],21.1%
same,"viability, T/C",[25],33.4%
same,"viability, T/C",[26],27.7%
same,"viability, T/C",[27],29.6%
same,"viability, T/C",[28],24.5%
same,"viability, T/C",[29],24.4%
same,"viability, T/C",[30],29.1%
same,"viability, T/C",[31],30.8%
same,"viability, T/C",[32],32.6%
same,"viability, T/C",[33],32.4%
same,"viability, T/C",[34],26.3%
same,"viability, T/C",[35],24.9%
same,"viability, T/C",[36],27.6%
CC(C)n1c(=O)n(C)c2cnc3cc(F)c(-c4ccc(OCCCN5CCCCC5)nc4)cc3c21 + Nc1ccc(C#CCN(C(=O)Cc2ncc(C(F)(F)F)cc2C(F)(F)F)c2ccc(F)cc2)nn1,IC50,second compound 0.0316 µM,> 10 µM
same,IC50,second compound 0.1 µM,> 10 µM
same,IC50,second compound 0.316 µM,> 10 µM
same,IC50,second compound 1 µM,> 10 µM
same,IC50,second compound 3.16 µM,> 10 µM
same,IC50,second compound 10 µM,9.87 µM
same,"viability, T/C",[1],116%
same,"viability, T/C",[2],116%
same,"viability, T/C",[3],90.3%
same,"viability, T/C",[4],99.3%
same,"viability, T/C",[5],90.7%
same,"viability, T/C",[6],62.2%
same,"viability, T/C",[7],88.6%
same,"viability, T/C",[8],102%
same,"viability, T/C",[9],97.5%
same,"viability, T/C",[10],88.3%
same,"viability, T/C",[11],82.8%
same,"viability, T/C",[12],66.2%
same,"viability, T/C",[13],114%
same,"viability, T/C",[14],109%
same,"viability, T/C",[15],95.1%
same,"viability, T/C",[16],105%
same,"viability, T/C",[17],71.8%
same,"viability, T/C",[18],53.3%
same,"viability, T/C",[19],107%
same,"viability, T/C",[20],110%
same,"viability, T/C",[21],108%
same,"viability, T/C",[22],91.2%
same,"viability, T/C",[23],85.2%
same,"viability, T/C",[24],59.1%
same,"viability, T/C",[25],100%
same,"viability, T/C",[26],105%
same,"viability, T/C",[27],114%
same,"viability, T/C",[28],76.4%
same,"viability, T/C",[29],71.3%
same,"viability, T/C",[30],60.8%
same,"viability, T/C",[31],96.8%
same,"viability, T/C",[32],110%
same,"viability, T/C",[33],87.9%
same,"viability, T/C",[34],92.5%
same,"viability, T/C",[35],94.4%
same,"viability, T/C",[36],49.5%
CC1COCCN1c1cc(-c2ccnn2C)c2ccnc(-c3ccn[nH]3)c2n1 (stereo unspecified) + Nc1ccc(C#CCN(C(=O)Cc2ncc(C(F)(F)F)cc2C(F)(F)F)c2ccc(F)cc2)nn1,IC50,second compound 0.0316 µM,> 10 µM
same,IC50,second compound 0.1 µM,> 10 µM
same,IC50,second compound 0.316 µM,> 10 µM
same,IC50,second compound 1 µM,10 µM
same,IC50,second compound 3.16 µM,0.232 µM
same,IC50,second compound 10 µM,> 10 µM
same,"viability, T/C",[1],110%
same,"viability, T/C",[2],52.5%
same,"viability, T/C",[3],35.8%
same,"viability, T/C",[4],31.4%
same,"viability, T/C",[5],72.4%
same,"viability, T/C",[6],67.8%
same,"viability, T/C",[7],112%
same,"viability, T/C",[8],49.3%
same,"viability, T/C",[9],44.4%
same,"viability, T/C",[10],37.4%
same,"viability, T/C",[11],45%
same,"viability, T/C",[12],81.1%
same,"viability, T/C",[13],90.7%
same,"viability, T/C",[14],45.4%
same,"viability, T/C",[15],33.7%
same,"viability, T/C",[16],34%
same,"viability, T/C",[17],68.2%
same,"viability, T/C",[18],83.4%
same,"viability, T/C",[19],87%
same,"viability, T/C",[20],62.4%
same,"viability, T/C",[21],38.5%
same,"viability, T/C",[22],29.9%
same,"viability, T/C",[23],61.5%
same,"viability, T/C",[24],73%
same,"viability, T/C",[25],96.6%
same,"viability, T/C",[26],51.6%
same,"viability, T/C",[27],32.6%
same,"viability, T/C",[28],29.8%
same,"viability, T/C",[29],61.5%
same,"viability, T/C",[30],74.2%
same,"viability, T/C",[31],102%
same,"viability, T/C",[32],41.1%
same,"viability, T/C",[33],39.6%
same,"viability, T/C",[34],36.2%
same,"viability, T/C",[35],79.8%
same,"viability, T/C",[36],74.8%
